Literature values as cited in patent US20250295115A1, “USE OF HERBICIDAL COMPOSITIONS BASED ON L-GLUFOSINATE IN TOLERANT FIELD CROPS” (BASF SE, priority 2017, published 2025).

Test system: perennial weeds and brush
Details: as taught by U.S. Pat. No. 4,265,654

In the case of CP(=O)(O)CC[C@H](N)C(=O)O (single isomer, unassigned) [L-isomer], the “Effectiveness compared with the racemic acid” value is listed as “twice as effective”.
